ChEMBL document CHEMBL4339249, “Antimicrobial Dolabellanes and Atranones from a Marine-Derived Strain of the Toxigenic Fungus Stachybotrys chartarum” (2019)
Calls of active or inactive are those of the source. No cut-off for these calls is given here.

What was measured:
[1] = system: Candida albicans; assay: Antimicrobial activity against Candida albicans ATCC 10231 assessed as inhibition of microbial growth incubated for 16 hrs by broth microdilution method; format: functional; settings: ATCC 10231, 16 h
[2] = system: Staphylococcus aureus; assay: Antimicrobial activity against methicillin-resistant Staphylococcus aureus ATCC 43300 assessed as inhibition of microbial growth incubated for 16 hrs by broth microdilution method; format: functional; settings: ATCC 43300, 16 h
[3] = system: Klebsiella pneumoniae; assay: Antimicrobial activity against Klebsiella pneumoniae ATCC 700603 assessed as inhibition of microbial growth incubated for 16 hrs by broth microdilution method; format: functional; settings: Klebsiella pneumoniae, 700603, 16 h
[4] = system: Escherichia coli; assay: Antimicrobial activity against ESBL-producing Escherichia coli ATCC 35218 assessed as inhibition of microbial growth incubated for 16 hrs by broth microdilution method; format: functional; settings: ATCC 35218, 16 h
[5] = system: Enterococcus faecalis; assay: Antimicrobial activity against Enterococcus faecalis ATCC 29212 assessed as inhibition of microbial growth incubated for 16 hrs by broth microdilution method; format: functional; settings: ATCC 29212, 16 h
[6] = system: Pseudomonas aeruginosa; assay: Antimicrobial activity against Pseudomonas aeruginosa ATCC 15442 assessed as inhibition of microbial growth incubated for 16 hrs by broth microdilution method; format: functional; settings: ATCC 15442, 16 h
[7] = system: Acinetobacter baumannii; assay: Antimicrobial activity against Acinetobacter baumannii ATCC 19606 assessed as inhibition of microbial growth incubated for 16 hrs by broth microdilution method; format: functional; settings: ATCC 19606, 16 h
[8] = system: Candida albicans; assay: Induction of morphological changes in Candida albicans ATCC 10231 assessed as induction of deformed cells at 8 ug/ml incubated for 12 hrs by transmission electron microscopy; format: functional, organism-based
[9] = system: Candida albicans; assay: Induction of morphological changes in Candida albicans ATCC 10231 assessed as induction of vacuoles formation in cytoplasm at 16 ug/ml incubated for 12 hrs by transmission electron microscopy; format: functional, organism-based
[10] = system: Candida albicans; assay: Induction of morphological changes in Candida albicans ATCC 10231 assessed as induction of cell membrane deformation at 16 ug/ml incubated for 12 hrs by transmission electron microscopy; format: functional, organism-based
[11] = system: Candida albicans; assay: Induction of morphological changes in Candida albicans ATCC 10231 assessed as induction of irregular cell shape at 8 ug/ml incubated for 12 hrs by transmission electron microscopy; format: functional, organism-based
[12] = system: Candida albicans; assay: Induction of morphological changes in Candida albicans ATCC 10231 assessed as induction of cell wall deformation at 16 ug/ml incubated for 12 hrs by transmission electron microscopy; format: functional, organism-based
[13] = system: Candida albicans; assay: Induction of morphological changes in Candida albicans ATCC 10231 assessed as induction of cell wall thinning at 8 ug/ml incubated for 12 hrs by transmission electron microscopy; format: functional, organism-based
[14] = system: Candida albicans; assay: Induction of morphological changes in Candida albicans ATCC 10231 assessed as induction of agglutination in cytoplasm at 8 ug/ml incubated for 12 hrs by transmission electron microscopy; format: functional, organism-based
[15] = system: Candida albicans; assay: Induction of morphological changes in Candida albicans ATCC 10231 assessed as induction of cell contents leakage at 16 ug/ml incubated for 12 hrs by transmission electron microscopy; format: functional, organism-based
[16] = system: Candida albicans; assay: Induction of morphological changes in Candida albicans ATCC 10231 assessed as induction of wrinkled cells at 8 ug/ml incubated for 12 hrs by transmission electron microscopy; format: functional, organism-based

Row | SMILES | MIC [1] | MIC [2] | MIC [3] | MIC [4] | MIC [5] | MIC [6] | MIC [7] | Activity [8] | Activity [9] | Activity [10] | Activity [11] | Activity [12] | Activity [13] | Activity [14] | Activity [15] | Activity [16]
1 | C/C1=C\[C@H]2/C(=C(/C)CC[C@@]3(CO)C(=O)C=C(C(C)C)[C@@H]3CC1)OC(=O)[C@@H]2[C@H](C)O | ≥ 100 µg/mL | ≥ 100 µg/mL | ≥ 100 µg/mL | ≥ 100 µg/mL | ≥ 100 µg/mL | ≥ 100 µg/mL | ≥ 100 µg/mL |  |  |  |  |  |  |  |  | 
2 | CN[C@H](CC(C)C)C(=O)N[C@H]1C(=O)N[C@@H](CC(N)=O)C(=O)N[C@H]2C(=O)N[C@H]3C(=O)N[C@H](C(=O)N[C@H](C(=O)O)c4cc(O)cc(O)c4-c4cc3ccc4O)[C@H](O)c3ccc(c(Cl)c3)Oc3cc2cc(c3O[C@@H]2O[C@H](CO)[C@@H](O)[C@H](O)[C@H]2O[C@H]2C[C@](C)(N)[C@H](O)[C@H](C)O2)Oc2ccc(cc2Cl)[C@H]1O [VANCOMYCIN] |  |  |  |  | 0.5 µg/mL |  |  |  |  |  |  |  |  |  |  | 
3 | C/C1=C\[C@H](O)C[C@]2(C)O[C@H]2C[C@@]2(C)C(=O)C=C(C(C)C)[C@@H]2CC1 | ≥ 100 µg/mL | ≥ 100 µg/mL | ≥ 100 µg/mL | ≥ 100 µg/mL | ≥ 100 µg/mL | ≥ 100 µg/mL | ≥ 100 µg/mL |  |  |  |  |  |  |  |  | 
4 | NCC[C@H](O)C(=O)N[C@@H]1C[C@H](N)[C@@H](O[C@H]2O[C@H](CN)[C@@H](O)[C@H](O)[C@H]2O)[C@H](O)[C@H]1O[C@H]1O[C@H](CO)[C@@H](O)[C@H](N)[C@H]1O [AMIKACIN] |  |  | 8 µg/mL | 4 µg/mL |  | 2 µg/mL | 2 µg/mL |  |  |  |  |  |  |  |  | 
5 | C/C1=C\[C@H](O)[C@H](O)C/C(C)=C/[C@@]2(C)OC(=O)C=C(C(C)C)[C@@H]2CC1 | ≥ 100 µg/mL | ≥ 100 µg/mL | ≥ 100 µg/mL | ≥ 100 µg/mL | ≥ 100 µg/mL | ≥ 100 µg/mL | ≥ 100 µg/mL |  |  |  |  |  |  |  |  | 
6 | CO/N=C(\C(=O)N[C@@H]1C(=O)N2C(C(=O)O)=C(CSc3nc(=O)c(O)nn3C)CS[C@H]12)c1csc(N)n1 [CEFTRIAXONE] |  |  | 2 µg/mL | 8 µg/mL |  | 2 µg/mL | 8 µg/mL |  |  |  |  |  |  |  |  | 
7 | OC(Cn1cncn1)(Cn1cncn1)c1ccc(F)cc1F [FLUCONAZOLE] | 1 µg/mL |  |  |  |  |  |  |  |  |  |  |  |  |  |  | 
8 | C/C1=C\[C@H](O)C[C@]2(C)O[C@H]2C[C@@]2(C)OC(=O)C=C(C(C)C)[C@@H]2CC1 | ≥ 100 µg/mL | ≥ 100 µg/mL | ≥ 100 µg/mL | ≥ 100 µg/mL | ≥ 32 µg/mL | ≥ 100 µg/mL | 16 µg/mL |  |  |  |  |  |  |  |  | 
9 | COC(=O)[C@H]1[C@H](C)O[C@@]2(O)[C@H](C)CC[C@@]3(C)OC(=O)C=C(C(C)C)[C@@H]3C[C@H](O)/C(C)=C/[C@H]12 | ≥ 100 µg/mL | ≥ 100 µg/mL | ≥ 100 µg/mL | ≥ 100 µg/mL | ≥ 100 µg/mL | ≥ 100 µg/mL | ≥ 100 µg/mL |  |  |  |  |  |  |  |  | 
10 | CC(=O)C[C@H]1/C=C(\C)[C@@H](O)C[C@H]2C(C(C)C)=CC(=O)O[C@]2(C)CC[C@@H](C)C1=O | 8 µg/mL | 32 µg/mL | ≥ 100 µg/mL | ≥ 100 µg/mL | 16 µg/mL | ≥ 100 µg/mL | ≥ 100 µg/mL | Active | Active | Active | Active | Active | Active | Active | Active | Active
